# Measured values published in patent US12599128B2, “Composition and method for improving agronomic traits of a plant” (THE BOARD OF TRUSTEES OF THE UNIVERSITY OF ILLINOIS, priority 2024, dated 2026).
# Legend:
# Format in all cases: in vivo
# [1] = test system: soybean plants (shoot apical meristem); assay: Field trial 1: soybean seed production after spraying the shoot apical meristem
# Protocol: (§1) FIG. 1 provides an example of an increase in soybean seed production following the removal of apical dominance by spraying with a double pass of 0.1M methyl decanoate (199.0±14.14 seeds/plant on average) at the V5 stage of growth compared to untreated controls (160.47±5.33 seeds/plant on average) conducted in Pleasant Plains, Illinois. […] Asterisks show significance differences at the 0.05 level.
# Field trial 1 was conducted in Pleasant Plants, Illinois. A single soybean variety was used in the field trial. The soybean variety was planted in 20 plots. Each plot was composed of 8 rows of plants spaced 30 inches apart and was 50 feet long by 20 feet wide. Soybeans were treated with 0.10 M methyl decanoate spray. An undiluted surfactant, polyoxyethylene sorbitan monolaurate, was added in equal weight to the fatty ester. Additional spray was applied by completion of a second pass with 0.10 M methyl decanoate spray. The second pass was completed immediately after the initial treatment of each row to saturate the apical meristem.
# Soybean plants were sprayed using an individual chemical spray backpack. The plants were sprayed with approximately 2.5 gallons/1000 sq feet of 0.1 M (or an equivalent of 110 gallons/acre) with the double pass. Soybean plants were sprayed with methyl decanoate at the V5 growth stage.
# The overall experiment was designed to distribute untreated control plots and mechanically clipped plants at the same growth stage with the methyl decanoate treated variety across the test field.
# [2] = test system: soybean plants (shoot apical meristem); assay: Field trial 2: soybean seed production after spraying the shoot apical meristem
# Protocol: FIG. 2 provides an example of an increase in soybean seed production following the removal of apical dominance by spraying with a double pass of 0.1M methyl decanoate (220.6±21.96 seeds/plant on average) at the V3 stage of growth compared to untreated controls (147.88±13.59 seeds/plant on average) conducted in Mt. Pulaski, Illinois. […] Asterisks show significance differences at the 0.05 level, + indicates a marginally significant difference at <0.10.
# Field trial 2 was conducted at GroAlliance in Mt Pulaski, Illinois and planted with a soybean variety. Soybean plants were treated with a spray containing 0.10 M methyl decanoate and polyethylene sorbitan monolaurate. Soybean plants were sprayed using individual chemical backpack spray units. The soybean plants were treated with methyl decanoate at or between the growth stages of V3 and V4.
# The test field was subdivided into plots with the dimensions of five rows by 10 feet. Two plots were designated for each soybean variety for spray treatment and distributed geographically across the full test field. Untreated control plots and mechanically clipped plants at the same growth stage were adjacent to the test plot areas.
# [3] = test system: soybean plants (shoot apical meristem); assay: Field trial 3: soybean seed production after spraying the shoot apical meristem
# Protocol: as §1, with “FIG. 3” for “FIG. 1”, “decanoate (97.85±4.43” for “decanoate (199.0±14.14”, “the V4-V6” for “the V5”, “controls (79.81±3.09” for “controls (160.47±5.33”, “in Lowell, Indiana.” for “in Pleasant Plains, Illinois.”
# Field trial 3 was conducted in Lowell, Indiana and a single soybean variety was tested. Soybean plants were treated with a double pass of methyl decanoate at a concentration of 0.10 M. The methyl decanoate spray contained an undiluted surfactant, polyoxyethylene sorbitan monolaurate, that was added in equal weight to the fatty ester.
# Soybean plants were treated the methyl decanoate spray using a backpack spray unit. Soybeans were sprayed in between growth stages V4-V6. The test plots were 21 rows by 50 feet.
smiles,measurement,setting,value
CCCCCCCCCC(=O)OC [methyl decanoate],seed yield compared to untreated control plants (in words),"[1]; 0.10 M spray with polyoxyethylene sorbitan monolaurate, V5 growth stage",increased seed yield
same,higher seed production than the untreated control,"[1]; double pass of 0.1M spray at V5 stage, Pleasant Plains, Illinois, F=3.33, p=0.046",24%
same,soybean seed production (seeds/plant on average),"[1]; double pass of 0.1M spray at V5 stage, Pleasant Plains, Illinois, untreated controls 160.47±5.33",199.0±14.14 seeds/plant
same,seed yield compared to untreated control plants (in words),"[2]; 0.10 M spray with surfactant, at or between V3 and V4",increased seed yield
same,higher seed production than the untreated control,"[2]; double pass of 0.1M spray at V3 stage, Mt. Pulaski, Illinois, F=2.74, p=0.084",38.4%
same,soybean seed production (seeds/plant on average),"[2]; double pass of 0.1M spray at V3 stage, Mt. Pulaski, Illinois, untreated controls 147.88±13.59",220.6±21.96 seeds/plant
same,seed yield compared to untreated control plants (in words),"[3]; double pass 0.10 M spray with polyoxyethylene sorbitan monolaurate, V4-V6",increased seed yield
same,higher seed production than the untreated control,"[3]; double pass of 0.1M spray at V4-V6 stage, Lowell, Indiana, F=5.63, p=0.005",22.6%
same,soybean seed production (seeds/plant on average),"[3]; double pass of 0.1M spray at V4-V6 stage, Lowell, Indiana, untreated controls 79.81±3.09",97.85±4.43 seeds/plant
